Assay results: patent US12338256B2, “Aza-tetracyclic oxazepine compounds and uses thereof” (Genentech, Inc., priority 2022, dated 2025)
Read-outs that look alike come from different tables or passages of the source.

Key:
[1] = tested on: H1975 (KRAS wild type human lung adenocarcinoma cell line); assay: KRAS 3D-Cell Proliferation Assay, H1975 (Example 503); assay type: cell-based; conditions: H1975 3D culture, 7 days, CellTiter-Glo 3D, read-out: Prolif H1975 3D ATP IC50
In short: (§1)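 Luminescent ATP readout (CellTiter-Glo 3D, with mechanical mixing) measures growth of cells cultured in 3D after a 7-day compound exposure at 37° C. Percent inhibition is referenced to vehicle (DMSO) and 1 μM staurosporine controls, and IC50 comes from a four-parameter Hill fit.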

[2] = tested on: HPAC (homozygous mutant KRAS G12D human pancreatic cell line); assay: KRAS 3D-Cell Proliferation Assay, HPAC (Example 503); assay type: cell-based; conditions: HPAC 3D culture, 7 days, CellTiter-Glo 3D, read-out: Prolif HPAC 3D ATP IC50
In short: as §1

IC50 [1] | SMILES | IC50 ([1]; Homo sapiens, NCI-H1975, 168 h) | IC50 ([2]; Homo sapiens, HPAC, 168 h) | IC50 [2]
– | C[C@@H]1Oc2nc(-c3c(C#N)c(N)c(F)c(F)c3C(F)(F)F)c(F)c3nc(OC[C@@]45CCCN4C[C@H](F)C5)nc(c23)N2C[C@H]3CC[C@H](N3)[C@@H]12 [Compound 107, 2-Amino-3,4-difluoro-6-((5S,5aS,6S,9R)-1-fluoro-12-(((2R,7aS)-2-fluorotetrahydro-1H-pyrrolizin-7a(5H)-yl)methoxy)-5-methyl-5a,6,7,8,9,10-hexahydro-5H-4-oxa-3,10a,11,13,14-pentaaza-6,9-methanonaphtho[1,8-ab]heptalen-2-yl)-5-(trifluoromethyl)benzonitrile] | 4870 nM | 43.5 nM | –
– | Cc1c(F)c(N)cc(-c2nc3c4c(nc(OCC5CCC6CC(C(=O)N(C)C)CCN56)nc4c2F)N2CC4CCC(N4)C2C(C)O3)c1C(F)(F)F (single isomer, unassigned) [133 (isomer 4)] | 2080 nM | 14.1 nM | –
– | Cc1nc(N)cc(-c2nc3c4c(nc(OC[C@@]56CCCN5C[C@H](F)C6)nc4c2F)N2C[C@H]4CC[C@H](N4)[C@H]2[C@H](C)O3)c1OC(F)F [Compound 188, 5-(Difluoromethoxy)-4-((5S,5aS,6S,9R)-1-fluoro-12-(((2R,7aS)-2-fluorotetrahydro-1H-pyrrolizin-7a(5H)-yl)methoxy)-5-methyl-5a,6,7,8,9,10-hexahydro-5H-4-oxa-3,10a,11,13,14-pentaaza-6,9-methanonaphtho[1,8-ab]heptalene-2-yl)-6-methylpyridin-2-amine] | 10100 nM | 66 nM | –
– | Cc1c(F)c(N)cc(-c2nc3c4c(nc(OCC5(CN6C[C@@H]7C[C@H]6CO7)CC5)nc4c2F)N2C[C@H]4CC[C@H](N4)[C@H]2[C@H](C)O3)c1C(F)(F)F [Compound 169, 5-((5S,5aS,6S,9R)-12-((1-(((1S,4S)-2-Oxa-5-azabicyclo[2.2.1]heptan-5-yl)methyl)cyclopropyl)methoxy)-1-fluoro-5-methyl-5a,6,7,8,9,10-hexahydro-5H-4-oxa-3,10a,11,13,14-pentaaza-6,9-methanonaphtho[1,8-ab]heptalene-2-yl)-2-fluoro-3-methyl-4-(trifluoromethyl)aniline] | 454 nM | 0.92 nM | –
1140 nM | Cc1c(F)c(N)cc(-c2nc3c4c(nc(OC[C@]5(CN6CCOCC6)CC5(F)F)nc4c2F)N2C[C@H]4CC[C@H](N4)[C@H]2[C@H](C)O3)c1C(F)(F)F [167 a] | – | – | 1.58 nM
– | Cc1nc(N)cc(-c2nc3c4c(nc(OCC5(CN6CC(C(F)F)C6)CC5)nc4c2F)N2C[C@H]4CC[C@H](N4)[C@H]2[C@H](C)O3)c1C(F)(F)F [Compound 274, 4-((5S,5aS,6S,9R)-12-((1-((3-(difluoromethyl)90eptalene-1-yl)methyl)cyclopropyl)methoxy)-1-fluoro-5-methyl-5a,6,7,8,9,10-hexahydro-5H-4-oxa-3,10a,11,13,14-pentaaza-6,9-methanonaphtho[1,8-ab]heptalene-2-yl)-6-methyl-5-(trifluoromethyl)pyridin-2-amine] | 1070 nM | 7.55 nM | –
– | Cc1c(F)c(N)cc(-c2nc3c4c(nc(OCC56COC(CN5C)C6)nc4c2F)N2C[C@H]4CC[C@H](N4)[C@H]2[C@H](C)O3)c1C(F)(F)F [Compound 132, 2-Fluoro-5-((5S,5aS,6S,9R)-1-fluoro-5-methyl-12-((5-methyl-2-oxa-5-azabicyclo[2.2.1]heptan-4-yl)methoxy)-5a,6,7,8,9,10-hexahydro-5H-4-oxa-3,10a,11,13,14-pentaaza-6,9-methanonaphtho[1,8-ab]heptalen-2-yl)-3-methyl-4-(trifluoromethyl)aniline] | 14200 nM | 70.4 nM | –
– | Cc1c(F)ccc(-c2nc3c4c(nc(OC[C@@]56CCCN5C[C@H](F)C6)nc4c2F)N2C[C@H]4CC[C@H](N4)[C@H]2[C@H](C)O3)c1C(F)(F)F [Compound 203, (5S,5aS,6S,9R)-1-fluoro-2-(4-fluoro-3-methyl-2-(trifluoromethyl)phenyl)-12-(((2R,7aS)-2-fluorotetrahydro-1H-pyrrolizin-7a(5H)-yl)methoxy)-5-methyl-5a,6,7,8,9,10-hexahydro-5H-4-oxa-3,10a,11,13,14-pentaaza-6,9-methanonaphtho[1,8-ab]heptalene] | 20000 nM | 520 nM | –
– | Cc1nc(N)cc(-c2nc3c4c(nc(OCC5(CN6CC7(CCCO7)C6)CC5)nc4c2F)N2C[C@H]4CC[C@H](N4)[C@H]2[C@H](C)O3)c1C(F)(F)F [Compound 281, 4-((5S,5aS,6S,9R)-12-((1-((5-oxa-2-azaspiro[3.4]octan-2-yl)methyl)cyclopropyl)methoxy)-1-fluoro-5-methyl-5a,6,7,8,9,10-hexahydro-5H-4-oxa-3,10a,11,13,14-pentaaza[6,9]methanonaphtho[1,8-ab]heptalene-2-yl)-6-methyl-5-(trifluoromethyl)pyridin-2-amine] | 2430 nM | 8.6 nM | –
– | Cc1c(F)c(N)cc(-c2nc3c4c(nc(OCC56CCCN5CC(F)C6)nc4c2F)N2CCNCC2C(C)O3)c1C(F)(F)F (single isomer, unassigned) [235 (isomer 1)] | 4340 nM | 2420 nM | –
– | C[C@@H]1Oc2nc(-c3cc(N)cc(F)c3C(F)(F)F)c(F)c3nc(OCC4CCC5N4CCOC5(C)C)nc(c23)N2C[C@H]3CC[C@H](N3)[C@@H]12 (stereo partly drawn) [Compound 157, 3-((5S,5aS,6S,9R)-12-((1,1-Dimethylhexahydro-1H-pyrrolo[2,1-c][1,4]oxazin-6-yl)methoxy)-1-fluoro-5-methyl-5a,6,7,8,9,10-hexahydro-5H-4-oxa-3,10a,11,13,14-pentaaza-6,9-methanonaphtho[1,8-ab]heptalen-2-yl)-5-fluoro-4-(trifluoromethyl)aniline] | 2140 nM | 12.8 nM | –
– | Cc1c(F)c(N)cc(-c2nc3c4c(nc(OCC56COCC5CCN6C)nc4c2F)N2CC4CCC(N4)C2C(C)O3)c1C(F)(F)F (single isomer, unassigned) [134 (isomer 2)] | 1940 nM | 7.45 nM | –
– | Cc1c(F)c(N)cc(-c2nc3c4c(nc(OC[C@@]56CCCN5C[C@H](F)C6)nc4c2F)N2CCNC[C@H]2C(C)O3)c1C(F)(F)F (single isomer, unassigned) [235 (isomer 2)] | 262 nM | 136 nM | –
– | Cc1c(F)c(N)c(F)c(-c2nc3c4c(nc(OC[C@@]56CCCN5C[C@H](F)C6)nc4c2F)N2C[C@H]4CC[C@H](N4)[C@H]2[C@H](C)O3)c1I [Compound 204, 2,6-Difluoro-3-((5S,5aS,6S,9R)-1-fluoro-12-(((2R,7aS)-2-fluorotetrahydro-1H-pyrrolizin-7a(5H)-yl)methoxy)-5-methyl-5a,6,7,8,9,10-hexahydro-5H-4-oxa-3,10a,11,13,14-pentaaza-6,9-methanonaphtho[1,8-ab]heptalen-2-yl)-4-iodo-5-methylaniline] | 1420 nM | 18.9 nM | –
– | Cc1cc(N)cc(-c2nc3c4c(nc(OC[C@@]56CCCN5CC5(CC5(F)F)C6)nc4c2F)N2C[C@H]4CC[C@H](N4)[C@H]2[C@H](C)O3)c1C(F)(F)F (stereo partly drawn) [Compound 68, 3-((5S,5aS,6S,9R)-12-(((7a′S)-2,2-Difluorodihydro-1′H,3′H-spiro[cyclopropane-1,2′-pyrrolizin]-7a′(5′H)-yl)methoxy)-1-fluoro-5-methyl-5a,6,7,8,9,10-hexahydro-5H-4-oxa-3,10a,11,13,14-pentaaza[6,9]methanonaphtho[1,8-ab]heptalen-2-yl)-5-methyl-4-(trifluoromethyl)aniline] | 146 nM | 0.205 nM | –
